The target in the experiment is Cdk4/CyclinD1 (Homo sapiens (Human), UniProt P11802). As to the kind of experiment: Cdk4 kinase inhibition assay with recombinant Cdk4/CyclinD1, Rb substrate, [33P]-ATP filter plate. Type of experiment: biochemical. The following applies: 25 μM ATP, read-out: Cdk 4 IC50. The method, then: The Cdk4 and Cdk6 inhibitory activity of the compounds is measured with a kinase inhibition assay using recombinant Cdk4/CyclinD1 or Cdk6/CyclinD3 protein complexes. The protein substrate used in the assay is the retinoblastoma protein (Rb). The kinase reactions are carried out in a 96-well filter plate (MSDV N6B50, Millipore). […] The mixture is incubated at room temperature for 1 hour and the proteins precipitated with an equal volume of 20% TCA. The plates are washed with 10% TCA according to the manufacturer's instruction and dried at room temperature. The amount of the phosphorylated Rb is determined with a TopCount (PerkinElmer). The IC50 of a compound is determined by nonlinear regression curve fitting using software program Prism 5 (GraphPad Software).
Chain of Cdk4/CyclinD1 (P11802 whole entry): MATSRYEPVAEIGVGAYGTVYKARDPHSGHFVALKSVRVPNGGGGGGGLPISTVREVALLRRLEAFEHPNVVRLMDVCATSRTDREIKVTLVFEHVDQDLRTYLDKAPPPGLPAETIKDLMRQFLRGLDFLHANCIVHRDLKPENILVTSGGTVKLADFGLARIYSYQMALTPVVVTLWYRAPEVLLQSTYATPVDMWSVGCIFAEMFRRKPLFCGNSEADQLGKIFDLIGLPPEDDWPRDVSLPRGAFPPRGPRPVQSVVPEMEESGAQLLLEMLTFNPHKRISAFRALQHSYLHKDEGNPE
Chain of Cdk4/CyclinD1 (P24385 whole entry partner): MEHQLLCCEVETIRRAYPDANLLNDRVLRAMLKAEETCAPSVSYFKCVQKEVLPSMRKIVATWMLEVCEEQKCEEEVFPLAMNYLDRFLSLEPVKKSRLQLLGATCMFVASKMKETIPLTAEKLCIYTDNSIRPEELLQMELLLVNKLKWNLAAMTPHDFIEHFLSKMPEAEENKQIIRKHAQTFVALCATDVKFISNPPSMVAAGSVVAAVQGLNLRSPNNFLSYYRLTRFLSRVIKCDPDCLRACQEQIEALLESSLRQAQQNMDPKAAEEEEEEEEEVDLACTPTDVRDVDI
By IC50 is commonly meant the concentration at which inhibition is half-maximal. `CC(C)(O)CN1CCN(c2ccc(Nc3ncc4c5ccnc(F)c5n(C5CCCC5)c4n3)nc2)CC1` [Example 172, 1-(4-(6-((9-Cyclopentyl-8-fluoro-9H-pyrido[4′,3′:4,5]pyrrolo[2,3-d]pyrimidin-2-yl)amino)-3-pyridinyl)-1-piperazinyl)-2-methyl-2-propanol]: the IC50 was determined as 5.6 nM.

As for `CNC1CCN(c2ccc(Nc3ncc4c5ccncc5n(C[C@@H](C)O)c4n3)nc2)CC1` [Example 425], the 50% inhibitory concentration (IC50) worked out at 73 nM.

`CNC1CCN(c2ccc(Nc3ncc4c5ccncc5n([C@@H]5CCOC5)c4n3)nn2)CC1` [Example 428]: the IC50 was 59 nM.

As for `O=C(Cc1ccc(Nc2ncc3c4ccncc4n(C4CCCC4)c3n2)nc1)N1CCNCC1` [Example 245, 9-cyclopentyl-N-(5-(2-oxo-2-(1-piperazinyl)ethyl)-2-pyridinyl)-9H-pyrido[4′,3′:4,5]pyrrolo[2,3-d]pyrimidin-2-amine], the 50% inhibitory concentration (IC50) came out at 7.4 nM.

For `C[C@H](O)Cn1c2cnccc2c2cnc(Nc3ccc(N4CCN[C@@H](C)C4)nn3)nc21` [Example 412], the IC50 was determined as 14 nM.

`CC1(C)CCC(n2c3cnccc3c3cnc(Nc4ccc(N5CCC(N6CCCC6)CC5)cn4)nc32)CC1` [Example 206, 9-(4,4-dimethylcyclohexyl)-N-(5-(4-(1-pyrrolidinyl)-1-piperidinyl)-2-pyridinyl)-9H-pyrido[4′,3′:4,5]pyrrolo[2,3-d]pyrimidin-2-amine]: the half-inhibitory concentration (IC50) is 14 nM.

For `CC1CCN(c2ccc(Nc3ncc4c5ccncc5n(C5CCCC5)c4n3)nn2)C1` (stereo not shown) [Example 120], the concentration for half-maximal inhibition (IC50) came out at 19 nM.

On to `O[C@H]1CCC[C@@H]1n1c2cnccc2c2cnc(Nc3ccc(N4CCNCC4)nn3)nc21` [Example 404], for which the IC50 was determined as 820 nM.

Consider `CCC1CN(c2ccc(Nc3ncc4c5ccncc5n(C5CCCC5)c4n3)nn2)CCN1` (stereo not shown) [Example 121], for which the IC50 came to 4.3 nM.

With `NC(=O)CC1CCN(c2ccc(Nc3ncc4c5ccnc(F)c5n(C5CCCC5)c4n3)nc2)CC1` [Example 176, 2-(1-(6-((9-Cyclopentyl-8-fluoro-9H-pyrido[4′,3′:4,5]pyrrolo[2,3-d]pyrimidin-2-yl)amino)-3-pyridinyl)-4-piperidinyl)acetamide], the half-inhibitory concentration (IC50) amounted to 930 nM.

Consider `CC1CCN(c2cnc(Nc3ncc4c5ccncc5n(C5CCCC5)c4n3)cn2)C1` (stereo not shown) [Example 88], for which the half-maximal inhibitory concentration (IC50) is 477 nM.

For the molecule `C[C@H]1CNCCN1c1ccc(Nc2ncc3c4ccnc(F)c4n(C4CCCC4)c3n2)nc1` [Example 177, 9-Cyclopentyl-8-fluoro-N-(5-((2S)-2-methyl-1-piperazinyl)-2-pyridinyl)-9H-pyrido[4′,3′:4,5]pyrrolo[2,3-d]pyrimidin-2-amine], the IC50 amounted to 5 nM.

On to `CN(C)C1CCN(c2ccc(Nc3ncc4c5ccncc5n([C@H]5CCOC5)c4n3)nn2)CC1` [Example 395], for which the concentration for half-maximal inhibition (IC50) stood at 300 nM.

As for `COC1CCN(c2ccc(Nc3ncc4c5ccncc5n(C5CCCC5)c4n3)nc2)C1` (stereo not shown) [Example 73], the IC50 came out at 17 nM.

With `O[C@@H]1CCN(c2ccc(Nc3ncc4c5ccncc5n([C@H]5CCOC5)c4n3)nc2)C1` [Example 396], the concentration for half-maximal inhibition (IC50) was 238 nM.

For the molecule `C[C@@H]1CN(c2cnc(Nc3ncc4c5ccncc5n(C5CCCC5)c4n3)cn2)CCN1` [Example 80], the IC50 was 3.5 nM.

Take `C[C@H]1CN(c2ccc(Nc3ncc4c5ccncc5n([C@H]5CCC[C@@H]5O)c4n3)nn2)CCN1` [Example 407]: the half-inhibitory concentration (IC50) came to 35 nM.

Take `COCC(C)(C)n1c2cnccc2c2cnc(Nc3ccc(N4CCC(N(C)C)CC4)nn3)nc21` [Example 274, N-(6-(4-(dimethylamino)-1-piperidinyl)-3-pyridazinyl)-9-(2-methoxy-1,1-dimethylethyl)-9H-pyrido[4′,3′:4,5]pyrrolo[2,3-d]pyrimidin-2-amine]: the IC50 came out at 1000 nM.

Consider `CCN(CC)C1CCN(c2ccc(Nc3ncc4c5ccnc(O)c5n(C5CCCC5)c4n3)nn2)CC1` [Example 282, 9-cyclopentyl-2-((6-(4-(diethylamino)-1-piperidinyl)-3-pyridazinyl)amino)-9H-pyrido[4′,3′:4,5]pyrrolo[2,3-d]pyrimidin-8-ol], for which the concentration for half-maximal inhibition (IC50) came to 2.8 nM.

For the molecule `CN1CCN(c2ccc(Nc3ncc4c5ccncc5n(C5CCCC5)c4n3)nn2)CC1` [Example 112], the half-inhibitory concentration (IC50) amounted to 5.9 nM.

On to `c1ncc2c(n1)c1cnc(Nc3ccc(N4CCNCC4)cn3)nc1n2C1CCCC1` [Example 59, 5-Cyclopentyl-N-(5-(1-piperazinyl)-2-pyridinyl)-5H-pyrimido[4′,5′:4,5]pyrrolo[2,3-d]pyrimidin-7-amine], for which the IC50 came to 15 nM.

Turning to `C[C@H]1CN(c2ccc(Nc3ncc4c5ccncc5n([C@@H](C)CO)c4n3)nn2)CCN1` [Example 377], the concentration for half-maximal inhibition (IC50) was 73 nM.

For `c1cc2c3cnc(Nc4cnc(N5CCOCC5)cn4)nc3n(C3CCCC3)c2cn1` [Example 84], the 50% inhibitory concentration (IC50) stood at 22 nM.

In the case of `CN(C)C1CCN(c2ccc(Nc3ncc4c5ccncc5n(C5CCSCC5)c4n3)nc2)CC1` [Example 276, N-(5-(4-(dimethylamino)-1-piperidinyl)-2-pyridinyl)-9-(tetrahydro-2H-thiopyran-4-yl)-9H-pyrido[4′,3′:4,5]pyrrolo[2,3-d]pyrimidin-2-amine], the 50% inhibitory concentration (IC50) turned out to be 96 nM.

With `CNC1CCN(c2ccc(Nc3ncc4c5ccncc5n([C@H]5CCC[C@H]5O)c4n3)nc2)CC1` [Example 393], the IC50 is 300 nM.

`c1cc2c3cnc(Nc4ccc(N5CCNCC5)nn4)nc3n([C@@H]3CCOC3)c2cn1` [Example 427]: the IC50 came out at 24 nM.

Turning to `OC[C@@H]1CN(c2ccc(Nc3ncc4c5ccnc(F)c5n(C5CCCC5)c4n3)nc2)CCN1` [Example 199, ((2S)-4-(6-((9-cyclopentyl-8-fluoro-9H-pyrido[4′,3′:4,5]pyrrolo[2,3-d]pyrimidin-2-yl)amino)-3-pyridinyl)-2-piperazinyl)methanol], the IC50 turned out to be 4.5 nM.

Consider `O[C@@H]1CCN(c2ccc(Nc3ncc4c5ccncc5n([C@H]5CCC[C@@H]5O)c4n3)nc2)C1` [Example 403], for which the half-maximal inhibitory concentration (IC50) stood at 350 nM.

`c1cc2c3cnc(Nc4ccc(NCC5CCNC5)cn4)nc3n(C3CCCC3)c2cn1` (stereo not shown) [Example 70]: the IC50 was 3.6 nM.

As for `COc1nccc2c3cnc(Nc4ccc(N5CCNCC5)cn4)nc3n(C3CCC(C)(C)CC3)c12` [Example 207, 9-(4,4-dimethylcyclohexyl)-8-methoxy-N-(5-(1-piperazinyl)-2-pyridinyl)-9H-pyrido[4′,3′:4,5]pyrrolo[2,3-d]pyrimidin-2-amine], the IC50 was 10 nM.

On to `C[C@H](CO)n1c2cnccc2c2cnc(Nc3ccc(N4CCN[C@@H](C)C4)nn3)nc21` [Example 387], for which the concentration for half-maximal inhibition (IC50) stood at 227 nM.

In the case of `COCCn1c2cnccc2c2cnc(Nc3ccc(N4CCC(N(C)C)CC4)nn3)nc21` [Example 315], the IC50 is 1380 nM.

In the case of `c1cc2c3cnc(Nc4ccc(N[C@@H]5CCNC5)nn4)nc3n(C3CCCC3)c2cn1` [Example 91], the IC50 amounted to 6.1 nM.

For the molecule `NCC1CCN(c2ccc(Nc3ncc4c5ccncc5n(C5CCCC5)c4n3)nc2)CC1` [Example 60, 4-Aminomethyl-1-(6-((9-cyclopentyl-9H-pyrido[4′,3′:4,5]pyrrolo[2,3-d]pyrimidin-2-yl)amino)-3-pyridinyl)-piperidine], the half-inhibitory concentration (IC50) was found to be 4 nM.

Take `C[C@H]1CN(c2ccc(Nc3ncc4c5ccnc(F)c5n(C5CCCC5)c4n3)nc2)CCN1` [Example 179, 9-cyclopentyl-8-fluoro-N-(5-((3S)-3-methyl-1-piperazinyl)-2-pyridinyl)-9H-pyrido-[4′,3′:4,5]pyrrolo[2,3-d]pyrimidin-2-amine]: the half-inhibitory concentration (IC50) was found to be 3.4 nM.

Regarding `CCN(CC)C1CCN(c2ccc(Nc3ncc4c5ccnc(OC)c5n(C5CCCC5)c4n3)nn2)CC1` [Example 283, 9-cyclopentyl-N-(6-(4-(diethylamino)-1-piperidinyl)-3-pyridazinyl)-8-methoxy-9H-pyrido[4′,3′:4,5]pyrrolo[2,3-d]pyrimidin-2-amine], the half-maximal inhibitory concentration (IC50) amounted to 11 nM.

Consider `NC1CCN(c2nc(Nc3ncc4c5ccncc5n(C5CCCC5)c4n3)ns2)CC1` [Example 131, 4-Amino-1-(3-((9-cyclopentyl-9H-pyrido[4′,3′:4,5]pyrrolo[2,3-d]pyrimidin-2-yl)amino)-5-1,2,4-thiadiazolyl)-piperidine], for which the half-inhibitory concentration (IC50) was determined as 174 nM.

For `O=S1(=O)CCC(O)(c2ccc(Nc3ncc4c5ccncc5n(C5CCCC5)c4n3)nc2)CC1` [Example 263, 4-(6-((9-cyclopentyl-9H-pyrido[4′,3′:4,5]pyrrolo[2,3-d]pyrimidin-2-yl)amino)-3-pyridinyl)tetrahydro-2H-thiopyran-4-ol 1,1-dioxide], the IC50 came out at 14 nM.

`CNC1CCN(c2ccc(Nc3ncc4c5ccncc5n([C@@H]5CCOC5)c4n3)nc2)CC1` [Example 431]: the IC50 came out at 12 nM.

Regarding `c1cc2c3cnc(Nc4ccc(N5CCNC6(CCCC6)C5)nn4)nc3n(C3CCCC3)c2cn1` [Example 247, 9-cyclopentyl-N-(6-(6,9-diazaspiro[4.5]dec-9-yl)-3-pyridazinyl)-9H-pyrido[4′,3′:4,5]pyrrolo[2,3-d]pyrimidin-2-amine], the IC50 was found to be 3.4 nM.

Regarding `CNC1CCN(c2ccc(Nc3ncc4c5ccncc5n([C@H](C)CO)c4n3)nc2)CC1` [Example 380], the IC50 came to 261 nM.

On to `c1cc2c3cnc(Nc4ccc(N5CCC6(CCCN6)CC5)cn4)nc3n(C3CCCC3)c2cn1` [Example 231, 9-cyclopentyl-N-(5-(1,8-diazaspiro[45]dec-8-yl)-2-pyridinyl)-9H-pyrido[4′,3′:4,5]pyrrolo[2,3-d]pyrimidin-2-amine], for which the IC50 came to 3.3 nM.

Take `c1cc2c3cnc(Nc4ccc(N5CCNC6(CCC6)C5)nn4)nc3n(C3CCCC3)c2cn1` [Example 246, 9-cyclopentyl-N-(6-(5,8-diazaspiro[3.5]non-8-yl)-3-pyridazinyl)-9H-pyrido[4′,3′:4,5]pyrrolo[2,3-d]pyrimidin-2-amine]: the concentration for half-maximal inhibition (IC50) turned out to be 70 nM.

The values above are taken from patent US8841312B2, “Fused pyridine, pyrimidine and triazine compounds as cell cycle inhibitors” (Amgen Inc., priority 2007, dated 2014).
